From patent US5094783A, “Retinoid compounds” (UAB Research Foundation, priority 1990, dated 1992)

Key:
[1] = target: cellular retinoic acid binding protein (CRABP) from chick embryo skin; test: CRABP binding assay, I50 (dextran-coated charcoal); conditions: 50% inhibition of binding of 100 pmoles [3H] retinoic acid to CRABP, chick embryo skin extract (1 mg protein); X=CO2H
Description: A standard in vitro cellular retinoic acid binding protein (CRABP) assay was also conducted on the retinoids. The CRABP binding study measured the ability of retinoids to compete for the retinoic acid binding site on CRABP, also a good indicator of retinoid potency as a chemopreventive agent.
(§1) Aliquots (2 mg protein) of chick skin extracts were incubated with 300 pmoles of [^3 H] retinoic acid in the presence or absence of 100-fold molar excesses of the test compounds. The 2S CRABP peaks were determined from the radioactivity profiles obtained after sedimentation through 5 to 20% sucrose density gradients at 180,000×g for 18 hours (Sani et al., supra). […] Free radioactive retinoid was removed by absorption on dextran-coated charcoal. The I50 values of the test compounds were derived from the semilog plots of their molar concentrations versus the specifically bound [^3 H] retinoic acid to CRABP at the different concentrations of the test retinoids.

[2] = tested on: ornithine decarboxylase (ODC) induced by TPA in mouse epidermis; test: In vivo ODC assay: inhibition of TPA-induced ornithine decarboxylase activity in mouse epidermis; conditions: TPA-induced ODC activity in epidermis of CD-1 mice, single topical application of retinoid 30 to 60 min before TPA, skins collected 5 h after TPA; values normalized to TPA control of 10; X=CO2H
Description: An in vivo ODC assay was conducted using four configurational isomers of retinoid 7 with X=CO2 H to study their bioactivities with respect to prevention of tumors. The ODC assay measured the inhibition by retinoids of the induction of ornithine decarboxylase in mouse epidermis by phorbol ester (TPA), an indicator of retinoid potency as a chemopreventive agent.
A single application of TPA was made to the shaved backs of CD-1 mice 30 to 60 minutes after a single application of the test retinoid. Five hours after the application of TPA, the exposed skins from the back of the three animals in each group were collected, and the epidermal extracts prepared from each animal were pooled and assayed. In order to improve the counting efficiency of radio-labeled product formed in the assay, the specific activity of ^14 C-ornithine was increased five-fold; the assay was terminated by the addition of citric acid at 45 minutes to ensure linear kinetics.

chick embryo skin CRABP = test: CRABP competition by sucrose density gradient sedimentation, 100-fold excess of retinoid; format: binding; conditions: 100-fold molar excess of test compound, 300 pmol [3H] retinoic acid, FIG. 1
Description: as §1

mouse skin papilloma = test: Mouse papilloma assay (tumor formation after DMBA initiation); format: in vivo; conditions: initiation with DMBA, X=CO2H

Row | IC50 [1] | inhibition of [3H] retinoic acid-binding to CRABP (relative binding affinity as compared to retinoic acid) (chick embryo skin CRABP) | SMILES | ODC Assay (nmol CO2/30 min./mg protein) [2] | tumor production, % of controls (mouse skin papilloma)
1 | 500 nM | 70% | CC1=C(C(C)C)/C(=C/C(C)=C/C=C/C(C)=C\C(=O)O)CCC1 [(13Z)-7] | 1.0 nmol CO2/30 min./mg protein | 
2 | 400 nM | 100% | CC1=C(C(C)C)/C(=C/C(C)=C/C=C/C(C)=C/C(=O)O)CCC1 [(all E)-7] | 0.5 nmol CO2/30 min./mg protein | 20 % of controls

Further lines, the compound ahead of its results:

Row | SMILES | IC50 [1] | inhibition of [3H] retinoic acid-binding to CRABP (relative binding affinity as compared to retinoic acid) (chick embryo skin CRABP) | ODC Assay (nmol CO2/30 min./mg protein) [2] | tumor production, % of controls (mouse skin papilloma)
3 | CC1=C(C(C)C)/C(=C/C(C)=C\C=C\C(C)=C\C(=O)O)CCC1 [(9Z)-7] | 2800 nM | 0% | > 100 nmol CO2/30 min./mg protein | 
4 | CC1=C(C(C)C)/C(=C/C(C)=C\C=C\C(C)=C/C(=O)O)CCC1 [(9Z,13Z)-7] | 4900 nM | 0% | > 100 nmol CO2/30 min./mg protein | 
5 | CC1=C(/C=C/C(C)=C/C=C/C(C)=C/C(=O)O)C(C)(C)CCC1 [all-E retinoic acid, reference compound] | 900 nM | 100% | 0.5 nmol CO2/30 min./mg protein | 11 % of controls
